Values of other authors as cited in patent publication US20130281394A1, “Chemosensory Receptor Ligand-Based Therapies” (ELCELYX THERAPEUTICS, INC., priority 2010, published 2013).
Marks after values point to notes of the source that are not given here.

target: T1, sweet receptor (Homo sapiens, UniProt Q7RTX0+Q8TE23); conditions: relative sweetness on a weight comparison basis to sucrose (= 1.0); ranges: varied with the concentration of sucrose
T1 sequence (Q8TE23 20-839): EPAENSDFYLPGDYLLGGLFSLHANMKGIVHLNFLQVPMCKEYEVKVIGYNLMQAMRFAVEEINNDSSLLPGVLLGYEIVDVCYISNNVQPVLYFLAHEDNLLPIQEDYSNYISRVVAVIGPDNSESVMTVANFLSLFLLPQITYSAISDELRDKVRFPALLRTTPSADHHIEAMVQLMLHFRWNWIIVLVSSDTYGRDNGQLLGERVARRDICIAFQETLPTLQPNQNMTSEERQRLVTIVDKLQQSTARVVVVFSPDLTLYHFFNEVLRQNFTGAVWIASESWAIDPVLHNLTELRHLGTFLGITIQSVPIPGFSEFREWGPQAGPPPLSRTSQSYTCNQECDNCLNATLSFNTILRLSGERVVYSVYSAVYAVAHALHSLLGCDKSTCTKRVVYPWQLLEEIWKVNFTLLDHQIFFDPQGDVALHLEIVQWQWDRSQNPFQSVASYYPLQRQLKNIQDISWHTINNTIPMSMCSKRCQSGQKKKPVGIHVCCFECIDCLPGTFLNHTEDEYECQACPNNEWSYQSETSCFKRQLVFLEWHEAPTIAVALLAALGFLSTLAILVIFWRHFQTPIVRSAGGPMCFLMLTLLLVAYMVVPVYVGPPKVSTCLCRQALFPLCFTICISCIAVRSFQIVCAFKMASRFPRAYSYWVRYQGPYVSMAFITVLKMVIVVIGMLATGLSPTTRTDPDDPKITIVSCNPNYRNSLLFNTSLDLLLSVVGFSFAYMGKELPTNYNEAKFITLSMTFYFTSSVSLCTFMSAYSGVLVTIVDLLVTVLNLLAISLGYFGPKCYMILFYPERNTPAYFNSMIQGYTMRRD
T1 sequence (Q7RTX0 21-852): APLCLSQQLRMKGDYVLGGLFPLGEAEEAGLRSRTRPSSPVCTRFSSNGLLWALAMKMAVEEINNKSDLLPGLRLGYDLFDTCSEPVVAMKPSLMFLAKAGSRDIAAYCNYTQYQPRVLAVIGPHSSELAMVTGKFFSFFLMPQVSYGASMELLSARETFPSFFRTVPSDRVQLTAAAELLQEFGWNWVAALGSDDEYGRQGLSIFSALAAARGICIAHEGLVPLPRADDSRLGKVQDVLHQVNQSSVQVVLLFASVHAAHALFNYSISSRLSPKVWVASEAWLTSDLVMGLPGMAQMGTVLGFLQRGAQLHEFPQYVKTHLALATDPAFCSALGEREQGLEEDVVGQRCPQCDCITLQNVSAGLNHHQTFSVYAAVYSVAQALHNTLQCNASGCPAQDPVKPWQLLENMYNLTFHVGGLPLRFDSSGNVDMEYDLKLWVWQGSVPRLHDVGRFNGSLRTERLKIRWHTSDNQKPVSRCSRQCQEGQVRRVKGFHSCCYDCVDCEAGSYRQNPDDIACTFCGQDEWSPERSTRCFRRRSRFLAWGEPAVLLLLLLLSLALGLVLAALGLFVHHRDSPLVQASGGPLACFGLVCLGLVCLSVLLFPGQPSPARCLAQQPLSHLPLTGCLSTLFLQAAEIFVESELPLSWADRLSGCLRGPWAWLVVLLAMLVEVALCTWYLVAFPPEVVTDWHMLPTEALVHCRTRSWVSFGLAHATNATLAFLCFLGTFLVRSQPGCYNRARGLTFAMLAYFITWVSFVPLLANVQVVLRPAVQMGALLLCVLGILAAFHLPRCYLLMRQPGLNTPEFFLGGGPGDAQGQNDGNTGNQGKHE

| Sweetness/potency | Compound |
| --- | --- |
| 93-170^d | CC1(C)[C@@H](O[C@H]2O[C@H](C(=O)O)[C@@H](O)[C@H](O)[C@H]2O[C@@H]2O[C@H](C(=O)O)[C@@H](O)[C@H](O)[C@H]2O)CC[C@]2(C)[C@H]3C(=O)C=C4[C@@H]5C[C@@](C)(C(=O)O)CC[C@]5(C)CC[C@@]4(C)[C@]3(C)CC[C@@H]12 [Glycyrrhizin] |
| 90 | CC1(C)[C@@H](O[C@@H]2O[C@H](C(=O)O)[C@@H](O)[C@H](O)[C@H]2O[C@@H]2O[C@H](C(=O)O)[C@@H](O)[C@H](O)[C@H]2O)CC[C@]2(C=O)[C@H]3CC[C@@H]4C5=C[C@@](C)(C(=O)O)CC[C@]5(C)CC[C@@]4(C)[C@]3(C)CC[C@@H]12 [Periandrin I] |
| 13 | C/C=C/c1ccc(OC)cc1 [trans-Anethole] |
| 500 | C[C@@H]1O[C@@H](O[C@H]2O[C@@H]([C@@H](C)C3CC[C@@H]4[C@H]5CC(=O)[C@@H]6C[C@H](O[C@@H]7O[C@H](CO)[C@@H](O)[C@H](O)[C@H]7O[C@@H]7O[C@@H](C)[C@H](O)[C@@H](O)[C@H]7O)CC[C@]6(C)[C@@H]5CC[C@]34C)CC[C@@H]2C)[C@H](O)[C@H](O)[C@H]1O (stereo partly drawn) [Osladin] |
| 1,000 | COc1ccc(CCC(=O)c2c(O)cc(O[C@@H]3O[C@H](CO)[C@@H](O)[C@H](O)[C@H]3O[C@@H]3O[C@@H](C)[C@H](O)[C@@H](O)[C@H]3O)cc2O)cc1O [Neohesperidin dihydrochalcone] |
| 221 | C=C1C[C@@]23CC[C@H]4[C@@](C)(CCC[C@@]4(C)C(=O)O[C@@H]4O[C@H](CO)[C@@H](O)[C@H](O)[C@H]4O[C@@H]4O[C@H](CO)[C@@H](O)[C@H](O)[C@H]4O)[C@@H]2CC[C@]1(O[C@@H]1O[C@H](CO)[C@@H](O)[C@H](O[C@@H]2O[C@H](CO)[C@@H](O)[C@H](O)[C@H]2O)[C@H]1O[C@@H]1O[C@H](CO)[C@@H](O)[C@H](O)[C@H]1O)C3 [Rebaudioside D] |
| 90 | C=C1C[C@@]23CC[C@H]4[C@@](C)(CCC[C@@]4(C)C(=O)O)[C@@H]2CC[C@]1(O[C@@H]1O[C@H](CO)[C@@H](O)[C@H](O)[C@H]1O[C@@H]1O[C@H](CO)[C@@H](O)[C@H](O)[C@H]1O)C3 [Steviolbioside] |
| 3,000 | Monellin |
| 35 | Oc1ccc([C@H]2Oc3c(c(O)cc4c3[C@H]3c5c(O)cc(O)cc5O[C@@](c5ccc(O)cc5)(O4)[C@@H]3O)[C@H](c3c(O)cc(O)c4c3O[C@H](c3ccc(O)cc3)[C@@H](O)C4)[C@H]2O)cc1 [Selligueain A] |
| 30 | CC1=CC[C@@H]([C@@H](C)[C@H]2CC[C@@]3(C)[C@@H]4CC[C@H]5[C@](C)(C(=O)O)[C@@H](O[C@@H]6O[C@H](CO)[C@@H](O)[C@H](O)[C@H]6O)CC[C@@]56C[C@@]46CC[C@]23C)OC1=O [Abrusoside A] |
| 85 | Periandrin IV |
| 30 | C=C1C[C@@]23CC[C@H]4[C@@](C)(CCC[C@@]4(C)C(=O)O[C@@H]4O[C@H](CO)[C@@H](O)[C@H](O)[C@H]4O)[C@@H]2CC[C@]1(O[C@@H]1O[C@H](CO)[C@@H](O)[C@H](O)[C@H]1O[C@@H]1O[C@@H](C)[C@H](O)[C@@H](O)[C@H]1O)C3 [Dulcoside A] |
| 20 | COc1c(O)cc2c(c1O)C(=O)[C@H](OC(C)=O)[C@@H](c1ccc(O)cc1)O2 [(2R,3R)-2,3-Dihydro-5,7,4′-trihydroxy-6-methoxy-3-O-acetylflavonol] |
| 50 | Pterocaryoside A |
| 550 | Curculin |
| 200 | Cyclocarioside A |
| 174 | C=C1C[C@@]23CC[C@H]4[C@@](C)(CCC[C@@]4(C)C(=O)O[C@@H]4O[C@H](CO)[C@@H](O)[C@H](O)[C@H]4O[C@@H]4O[C@H](CO)[C@@H](O)[C@H](O)[C@H]4O)[C@@H]2CC[C@]1(O[C@@H]1O[C@H](CO)[C@@H](O)[C@H](O)[C@H]1O[C@@H]1O[C@H](CO)[C@@H](O)[C@H](O)[C@H]1O)C3 [Rebaudioside E] |
| 50 | CC1=CC[C@@H]([C@@H](C)[C@H]2CC[C@@]3(C)[C@@H]4CC[C@H]5[C@](C)(C(=O)O)[C@@H](O[C@@H]6O[C@H](CO)[C@@H](O)[C@H](O)[C@H]6O[C@@H]6O[C@H](CO)[C@@H](O)[C@H](O)[C@H]6O)CC[C@@]56C[C@@]46CC[C@]23C)OC1=O [Abrusoside C] |
| 500 | Pentadin |
| 500 | Baiyunoside |
| 51 | Carnosifloside V |
| 75 | CC1=CC[C@@H]([C@@H](C)[C@H]2CC[C@@]3(C)[C@@H]4CC[C@H]5[C@](C)(C(=O)O)[C@@H](O[C@@H]6O[C@H](CO)[C@@H](O)[C@H](O)[C@H]6O[C@@H]6O[C@H](C(=O)O)[C@@H](O)[C@H](O)[C@H]6O)CC[C@@]56C[C@@]46CC[C@]23C)OC1=O [Abrusoside D] |
| 15 | COc1c(O)cc2c(c1O)C(=O)[C@H](O)[C@@H](c1ccc(O)c(O)c1)O2 [(2R,3R)-2,3-Dihydro-5,7,3′,4′-tetrahydroxy-6-methoxyflavonol] |
| 150 | CC1(C)[C@@H](O[C@H]2O[C@H](C(=O)O)[C@@H](O)[C@H](O)[C@H]2O[C@@H]2OC[C@H](O)[C@H](O)[C@H]2O)CC[C@]2(C)[C@H]3C(=O)C=C4[C@@H]5C[C@@](C)(C(=O)O)CC[C@]5(C)CC[C@@]4(C)[C@]3(C)CC[C@@H]12 [Araboglycyrrhizin] |
| 100 | C=C(C)C1CCC2(C)C(CC(OC3OCC(O)C(O)C3O)C3C(C(C)(O)C/C=C/C(C)(C)O)CCC32C)C1(C)CCC(=O)O (stereo not drawn) [Pterocaryoside B] |
| 210 | C=C1C[C@@]23CC[C@H]4[C@@](C)(CCC[C@@]4(C)C(=O)O[C@@H]4O[C@H](CO)[C@@H](O)[C@H](O)[C@H]4O)[C@@H]2CC[C@]1(O[C@@H]1O[C@H](CO)[C@@H](O)[C@H](O)[C@H]1O[C@@H]1O[C@H](CO)[C@@H](O)[C@H](O)[C@H]1O)C3 [Stevioside] |
| 100 | COC(=O)[C@H]1O[C@@H](O[C@H]2[C@H](O[C@H]3CC[C@]45C[C@]46CC[C@]4(C)[C@@H]([C@H](C)[C@@H]7CC=C(C)C(=O)O7)CC[C@@]4(C)[C@@H]6CC[C@H]5[C@]3(C)C(=O)O)O[C@H](CO)[C@@H](O)[C@@H]2O)[C@H](O)[C@@H](O)[C@@H]1O [Abrusoside B] |
| 300 | CC1(C(=O)O)CCC2(C)CCC3(C)C(=CC(=O)C4C5(C)CCC(OC6OC(C(=O)O)C(O)C(O)C6OC6OCC(O)(CO)C6O)C(C)(C)C5CCC43C)C2C1 (stereo not drawn) [Apioglycyrrhizin] |

| Compound | Sweetness/potency |
| --- | --- |
| Oc1cc2c(cc1O)[C@@H]1c3ccc(O)c(O)c3OC[C@]1(O)C2 [Hematoxylin] | 120 |
| C[C@H](CC[C@@H](O[C@@H]1O[C@H](CO[C@@H]2O[C@H](CO)[C@@H](O)[C@H](O)[C@H]2O)[C@@H](O)[C@H](O)[C@H]1O[C@@H]1O[C@H](CO)[C@@H](O)[C@H](O)[C@H]1O)C(C)(C)O)[C@H]1CC[C@@]2(C)[C@@H]3CC=C4[C@@H](CC[C@H](O[C@@H]5O[C@H](CO)[C@@H](O)[C@H](O)[C@H]5O)C4(C)C)[C@]3(C)[C@H](O)C[C@]12C [Siamenoside I] | 563 |
| C[C@H](CC[C@@H](O[C@@H]1O[C@H](CO[C@@H]2O[C@H](CO)[C@@H](O)[C@H](O)[C@H]2O)[C@@H](O)[C@H](O)[C@H]1O[C@@H]1O[C@H](CO)[C@@H](O)[C@H](O)[C@H]1O)C(C)(C)O)[C@H]1CC[C@@]2(C)[C@@H]3CC=C4[C@@H](CC[C@H](O[C@@H]5O[C@H](CO[C@@H]6O[C@H](CO)[C@@H](O)[C@H](O)[C@H]6O)[C@@H](O)[C@H](O)[C@H]5O)C4(C)C)[C@]3(C)[C@H](O)C[C@]12C [Mogroside V] | 250-425^d |
| O=C/C=C/c1ccccc1 [Trans-Cinnamaldehyde] | 50 |
| C=C(C)[C@@H]1CC=C(/C=N/O)CC1 [Perillartine] | 370 |
